Experimental data from PMC6385358, “Discovery of ((1,2,4-oxadiazol-5-yl)pyrrolidin-3-yl)ureidyl derivatives as selective non-steroidal agonists of the G-protein coupled bile acid receptor-1” (Scientific Reports, 2019).

Legend:
Assay type in all cases: cell-based
Settings in all cases: 10 μM
[1] = target: T1, PPARγ (Homo sapiens, UniProt P37231); assay: Luciferase reporter specificity assay versus PPARγ on HepG2 cells
T1 construct: host or cells: HepG2
T1 sequence (P37231 1-505): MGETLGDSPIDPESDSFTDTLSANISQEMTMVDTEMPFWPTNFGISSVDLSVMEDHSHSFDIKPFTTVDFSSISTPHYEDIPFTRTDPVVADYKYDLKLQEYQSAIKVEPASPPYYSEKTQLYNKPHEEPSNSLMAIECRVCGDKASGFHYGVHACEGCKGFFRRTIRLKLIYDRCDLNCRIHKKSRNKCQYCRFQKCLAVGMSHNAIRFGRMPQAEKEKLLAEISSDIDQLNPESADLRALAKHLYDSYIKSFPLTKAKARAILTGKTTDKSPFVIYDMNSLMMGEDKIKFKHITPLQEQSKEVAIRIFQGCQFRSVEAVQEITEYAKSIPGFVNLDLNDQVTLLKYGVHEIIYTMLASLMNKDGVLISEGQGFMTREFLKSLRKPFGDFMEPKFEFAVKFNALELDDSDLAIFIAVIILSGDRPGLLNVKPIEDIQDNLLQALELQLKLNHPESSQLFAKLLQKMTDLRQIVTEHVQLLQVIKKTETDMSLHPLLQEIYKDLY
Procedure: (§1) The activity of compounds 1–14 on GPBAR1 was evaluated in a luciferase reporter assay using HEK-293T cells transfected with GPBAR1. The efficacy of tested compounds (Table 1) was measured using taurolithocholic acid (TLCA) as GPBAR1 reference compound[10],[11]. Each compound was tested at the concentration of 10 μM and transactivation activity of TLCA on a cAMP responsive element (CRE) (i.e. TGR5/GPBAR1) was considered equal to 100%. […] Thus, 9 and 10 (Table 1) turned out to be the most promising derivatives considering their low EC50 values and high activity efficacy. To further characterize the pharmacological properties of these compounds, we expanded their in vitro profile to common off-targets for bile acid receptor ligands.
(§2) Figure 3 (A) Dose response curves of compounds 9 and 10 (concentrations ranging from 1 to 50 µM) in luciferase reporter assay. (B) Real-time PCR analysis of mRNA expression of Pro-glucagon in GLUTag cells treated with compounds 9 and 10 at 10 μM, and TLCA used as a positive control (10 μM). Values are normalized to GAPDH and are expressed relative to those of not treated cells (NT) which are arbitrarily settled to 1. The relative mRNA expression is expressed as 2^(−ΔΔCt). […]
(§3) The specificity of compounds 9 and 10 versus PPARα, PPARγ, LXRα, LXRβ, FXR and PXR was determined in luciferase reporter gene assays as previously reported[29],[31].

[2] = target: T2, LXRβ (Homo sapiens, UniProt P55055); assay: Luciferase reporter specificity assay versus LXRβ on HepG2 cells
T2 construct: host or cells: HepG2
T2 sequence (P55055 1-460): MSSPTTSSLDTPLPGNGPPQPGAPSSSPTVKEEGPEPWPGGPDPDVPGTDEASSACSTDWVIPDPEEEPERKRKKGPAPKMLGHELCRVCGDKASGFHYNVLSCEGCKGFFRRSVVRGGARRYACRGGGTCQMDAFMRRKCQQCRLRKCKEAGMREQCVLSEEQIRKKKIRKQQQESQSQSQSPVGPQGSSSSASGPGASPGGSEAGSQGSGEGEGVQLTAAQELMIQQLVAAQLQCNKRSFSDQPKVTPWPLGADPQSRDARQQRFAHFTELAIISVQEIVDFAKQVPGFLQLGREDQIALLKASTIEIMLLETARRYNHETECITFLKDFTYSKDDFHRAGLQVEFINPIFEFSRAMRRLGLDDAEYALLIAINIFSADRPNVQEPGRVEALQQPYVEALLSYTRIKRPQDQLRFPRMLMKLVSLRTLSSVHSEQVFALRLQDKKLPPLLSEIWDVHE
Procedure: as §1, §2, §3

[3] = target: T3, PXR (Homo sapiens, UniProt O75469); assay: Luciferase reporter specificity assay versus PXR on HepG2 cells
T3 construct: host or cells: HepG2
T3 sequence (O75469 1-434): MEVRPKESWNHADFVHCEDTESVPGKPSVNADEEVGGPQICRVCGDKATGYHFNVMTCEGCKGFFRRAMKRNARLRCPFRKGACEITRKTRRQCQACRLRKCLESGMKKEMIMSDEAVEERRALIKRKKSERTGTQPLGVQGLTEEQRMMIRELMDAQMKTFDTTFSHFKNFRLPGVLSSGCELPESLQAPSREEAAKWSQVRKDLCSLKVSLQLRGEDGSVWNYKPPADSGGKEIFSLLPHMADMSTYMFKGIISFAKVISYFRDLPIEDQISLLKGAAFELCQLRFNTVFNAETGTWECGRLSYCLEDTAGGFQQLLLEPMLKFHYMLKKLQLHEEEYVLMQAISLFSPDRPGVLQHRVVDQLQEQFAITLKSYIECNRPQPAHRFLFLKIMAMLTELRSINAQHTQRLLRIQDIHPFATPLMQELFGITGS
Procedure: as §1, §2, §3

O=C(Nc1ccc(Cl)cc1)N[C@@H]1CN[C@H](c2nc(-c3ccccc3)no2)C1 [Compound 9]
unable to induce: PPARγ transactivation [1] | LXRβ transactivation [2] | PXR transactivation [3]

O=C(NC1CCCCC1)N[C@@H]1CN[C@H](c2nc(-c3ccccc3)no2)C1 [Compound 10]
unable to induce: PPARγ transactivation [1] | LXRβ transactivation [2] | PXR transactivation [3]
